Test results published in patent US20230132526A1 (Institute of Materia Medica, Chinese Academy of Medical …, priority 2020, published 2023).

How the values were obtained:
[1] = test system: phosphorylated Akt; assay: Level of phosphorylated Akt by western blotting in primary mouse hepatocytes treated with EphB4 inhibitor; format: cell-based; settings: LCA 10 μM and 20 μM overnight, 10 nM insulin 20 min before collection, western blotting (FIG. 2C)
Experimental: After the liver tissue was fully digested, it was suspended with DMEM medium, flew through a cell sieve with a diameter of 70 μm, and was centrifugated, thereby the primary hepatocytes were obtained. The cells were resuspended in complete culture medium and dispersed into a petri dish or plate. After the cells were attached, they were treated with LCA (10 μM and 20 μM) overnight.

[2] = test system: flag-InsR; assay: Protein level of flag-InsR by Western blotting in HEK293T cells co-expressing insulin receptor and EphB4, treated with degradation pathway inhibitors; format: cell-based; settings: HEK293T cells co-expressing flag-InsR and EphB4-HA; ammonium chloride 5 mM, chloroquine 10 μM, 8 h; Western blotting (FIG. 2B)
Experimental: GFP was co-transfected as a reference for foreign proteins. The cells were treated with proteasome degradation pathway inhibitor MG132 (10 μM), lysosome degradation pathway inhibitor ammonium chloride (5 mM) and chloroquine (10 μM) for 8 h.

SMILES	level of phosphorylated Akt [1]	protein level of flag-InsR (effect on EphB4-promoted insulin receptor degradation) [2]
C[C@H](CCC(=O)O)[C@H]1CC[C@H]2[C@@H]3CC[C@@H]4C[C@H](O)CC[C@]4(C)[C@H]3CC[C@]12C [LCA, 3α-hydroxy-5β-cholanoic acid]	increase the level of phosphorylated Akt	
Cl.N [ammonium chloride, Ammonium chloride]		partially rescue the promoting effect of EphB4 on insulin receptor degradation to some extent
CCN(CC)CCCC(C)Nc1ccnc2cc(Cl)ccc12 (stereo not drawn) [chloroquine]		partially rescue the promoting effect of EphB4 on insulin receptor degradation to some extent
